Test system: HIV-1 (NL4-3 RLuc reporter virus in MT-2 cells)
Test: Inhibition of HIV-1 replication, MT-2 spreading infection assay
Type: cell-based
Details: Human immunodeficiency virus 1, NL43, MT2, 96 h, read-out: HIV activity (μM)
Procedure: Inhibition of HIV-1 viral replication was assayed in a spreading infection using MT-2 cells and NL4-3 RLuc reporter virus. For dose-response curves, compounds were initially diluted with DMSO to 100-fold the starting concentration in a 96-well plate and subjected to a series of 3-fold dilutions in DMSO for a total of eight or nine dilutions. If a single compound concentration was tested, the compound was diluted to 100-fold the desired concentration in DMSO. Compounds were then diluted 50-fold with infection media prepared by diluting NL4-3 RLuc virus stock to 400 IU/100 ul with complete RPMI. Then, 100 ul of 50-fold-diluted compound was transferred to 20,000 MT-2 cells that were preceded in 96-well plates in 100 ul of complete RPMI for a final volume of 200 ul, followed by incubation at 37° C. for 96 h. The final MOI in infected plates was 0.02, and the final DMSO concentration in all wells was 1%. All assays were run with three replicates. For each replicate, one well received DMSO only, and one well received medium only for normalization and background correction. […] Plates were read on a luminescence plate reader (Synergy H1; BioTek Instruments, Inc.).

Structure (SMILES) | IC50 [µM]
COc1cc2c(c(OC)c1OCc1ccccc1)CCNC2/C=C/c1cc2c(cc1C)OCO2 (stereo not drawn) [Compound 6, 6-benzyloxy-5,7-dimethoxy-1-[(E)-2-(6-methyl-1,3-benzodioxol-5-yl)vinyl]-1,2,3,4-tetrahydroisoquinoline] | 0.37
COc1c(OCc2ccccc2)cc2c(c1OC)C(/C=C/c1cc3c(cc1C)OCO3)NCC2 (stereo not drawn) [Compound 10, 6-benzyloxy-7,8-dimethoxy-1-[(E)-2-(6-methyl-1,3-benzodioxol-5-yl)vinyl]-1,2,3,4-tetrahydroisoquinoline] | 2.5
COc1cc2c(cc1OCc1ccccc1)C(C)CNC2/C=C/c1cc2c(cc1C)OCO2 (stereo not drawn) [Compound 12, 6-Benzyloxy-7-methoxy-4-methyl-1-[(E)-2-(6-methyl-1,3-benzodioxol-5-yl)vinyl]-1,2,3,4-tetrahydroisoquinoline] | 1.4
CCC1Cc2cc(OCc3ccccc3)c(OC)cc2C(/C=C/c2cc3c(cc2C)OCO3)N1 (stereo not drawn) [Compound 24, 6-Benzyloxy-7-methoxy-3-ethyl-1-[(E)-2-(6-methyl-1,3-benzodioxol-5-yl)vinyl]-1,2,3,4-tetrahydroisoquinoline] | 0.5
COc1cc2c(cc1OCc1ccccc1)CCN(O)C2/C=C/c1cc2c(cc1C)OCO2 (stereo not drawn) [Compound 36, 6-benzyloxy-2-hydroxy-7-methoxy-1-[(E)-2-(6-methyl-1,3-benzodioxol-5-yl)vinyl]-3,4-dihydro-1H-isoquinoline] | 0.053
COc1cc2c(cc1OCc1ccccc1)C(Cl)CNC2/C=C/c1cc2c(cc1C)OCO2 (stereo not drawn) [Compound 61] | 2.5

Source: US12024521B2, “Isoquinoline derivatives, methods of synthesis and uses thereof” (priority 2020, dated 2024)
